Experimental data taken from PMC10976477 (RSC Advances, 2024).

What was measured:
[1] = ABTS radical cation scavenging assay; details: read-out: IC50 (μM) ± SEM ABTS
[2] = DPPH radical scavenging assay; details: read-out: IC50 (μM) ± SEM DPPH
[3] = biological target: eeAChE (Electrophorus electricus, UniProt O42275); test: Cholinesterase inhibition, Ellman's assay; type: biochemical, electric eel
[4] = biological target: eqBChE (Equus caballus, UniProt P81908); test: Cholinesterase inhibition, Ellman's assay; details: read-out: IC50 (μM) ± SEM eqBChE; mean ± SEM; n = 3
Chain of eqBChE (P81908 whole entry): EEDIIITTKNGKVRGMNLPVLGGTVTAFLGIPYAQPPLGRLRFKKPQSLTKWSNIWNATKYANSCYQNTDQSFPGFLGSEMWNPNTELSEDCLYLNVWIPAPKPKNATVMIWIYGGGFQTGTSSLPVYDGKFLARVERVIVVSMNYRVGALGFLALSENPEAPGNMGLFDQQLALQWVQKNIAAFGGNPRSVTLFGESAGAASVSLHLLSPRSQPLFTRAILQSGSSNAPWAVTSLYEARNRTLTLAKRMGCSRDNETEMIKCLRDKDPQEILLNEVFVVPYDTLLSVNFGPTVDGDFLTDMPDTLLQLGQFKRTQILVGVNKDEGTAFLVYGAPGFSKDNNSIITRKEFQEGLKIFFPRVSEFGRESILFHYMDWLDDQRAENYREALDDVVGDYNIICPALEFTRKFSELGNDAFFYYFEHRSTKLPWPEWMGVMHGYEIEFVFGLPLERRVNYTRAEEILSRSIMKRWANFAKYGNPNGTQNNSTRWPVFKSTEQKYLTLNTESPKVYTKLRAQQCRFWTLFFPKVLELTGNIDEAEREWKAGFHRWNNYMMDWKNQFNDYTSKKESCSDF

[5] = biological target: T1, human MAO-A (Homo sapiens, UniProt P21397); test: MAO-A inhibition assay; type: biochemical; details: read-out: IC50 (μM) ± SEM MAO-A; mean ± SEM; n = 3
T1 sequence (P21397 1-527): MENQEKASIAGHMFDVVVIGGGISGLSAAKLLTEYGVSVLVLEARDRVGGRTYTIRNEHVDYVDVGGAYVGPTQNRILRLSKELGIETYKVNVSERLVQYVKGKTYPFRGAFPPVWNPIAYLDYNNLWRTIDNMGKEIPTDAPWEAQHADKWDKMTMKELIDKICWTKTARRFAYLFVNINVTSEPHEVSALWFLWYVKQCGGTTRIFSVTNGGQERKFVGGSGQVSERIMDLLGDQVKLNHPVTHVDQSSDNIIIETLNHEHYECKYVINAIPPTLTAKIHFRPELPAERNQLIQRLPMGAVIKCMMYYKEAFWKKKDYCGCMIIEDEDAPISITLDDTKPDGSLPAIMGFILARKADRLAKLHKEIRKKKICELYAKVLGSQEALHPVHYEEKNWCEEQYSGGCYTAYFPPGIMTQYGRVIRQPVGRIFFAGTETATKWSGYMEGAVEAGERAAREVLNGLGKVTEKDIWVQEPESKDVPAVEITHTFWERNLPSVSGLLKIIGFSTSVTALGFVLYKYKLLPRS

[6] = biological target: T2, human MAO-B (Homo sapiens, UniProt P27338); test: MAO-B inhibition assay; type: biochemical
T2 sequence (P27338 1-520): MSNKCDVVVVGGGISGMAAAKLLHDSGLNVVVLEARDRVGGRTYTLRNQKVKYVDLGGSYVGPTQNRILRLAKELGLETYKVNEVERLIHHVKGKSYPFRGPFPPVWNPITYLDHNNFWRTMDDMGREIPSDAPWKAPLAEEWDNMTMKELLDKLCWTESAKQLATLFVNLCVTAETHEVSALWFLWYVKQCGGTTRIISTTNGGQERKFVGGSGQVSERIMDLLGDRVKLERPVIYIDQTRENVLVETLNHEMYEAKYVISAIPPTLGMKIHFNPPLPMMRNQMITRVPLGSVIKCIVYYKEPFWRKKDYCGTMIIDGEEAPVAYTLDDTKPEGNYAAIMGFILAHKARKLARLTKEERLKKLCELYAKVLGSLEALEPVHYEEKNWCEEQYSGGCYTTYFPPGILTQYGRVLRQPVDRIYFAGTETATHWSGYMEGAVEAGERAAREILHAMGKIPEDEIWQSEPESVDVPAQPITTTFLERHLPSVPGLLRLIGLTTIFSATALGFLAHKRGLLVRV

Chain of eeAChE (O42275 24-633): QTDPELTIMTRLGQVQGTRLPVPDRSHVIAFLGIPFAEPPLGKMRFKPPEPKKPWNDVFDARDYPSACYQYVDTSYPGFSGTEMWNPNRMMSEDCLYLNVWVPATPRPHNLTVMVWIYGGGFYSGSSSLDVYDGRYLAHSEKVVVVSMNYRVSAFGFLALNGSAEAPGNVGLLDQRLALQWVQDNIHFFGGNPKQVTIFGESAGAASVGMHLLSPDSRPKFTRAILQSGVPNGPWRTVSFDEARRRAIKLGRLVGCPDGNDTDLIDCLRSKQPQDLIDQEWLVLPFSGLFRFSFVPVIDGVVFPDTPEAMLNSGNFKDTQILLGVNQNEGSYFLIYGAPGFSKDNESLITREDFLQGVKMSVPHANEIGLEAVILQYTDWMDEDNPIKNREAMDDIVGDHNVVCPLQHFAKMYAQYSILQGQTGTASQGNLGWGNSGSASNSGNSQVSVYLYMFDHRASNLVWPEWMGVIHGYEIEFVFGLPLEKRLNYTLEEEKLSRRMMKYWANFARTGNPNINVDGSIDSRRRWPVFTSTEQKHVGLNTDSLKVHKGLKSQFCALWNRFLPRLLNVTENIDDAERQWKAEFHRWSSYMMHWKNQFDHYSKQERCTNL

Compound: COc1cc(/C=C/C(=O)Nc2nc3ccc(O)cc3s2)ccc1OCc1ccccc1 [Compound 22, (E)-3-(4-(Benzyloxy)-3-methoxyphenyl)-N-(6-hydroxybenzo[d]thi-azol-2-yl)acrylamide]
- IC50 [1]: 43.2 ± 1.34 µM
- IC50 [2]: 16.33 ± 0.1 µM
- IC50 ([3]; read-out: IC50 (μM) ± SEM eeAChE, mean ± SEM, n = 3): 0.172 ± 0.1 µM
- SI = IC50 of BChE/IC50 of AChE ([3]; selectivity index): 217
- IC50 [4]: 37.4 ± 1.17 µM
- IC50 [5]: 19.4 ± 1.1 µM
- IC50 ([6]; read-out: IC50 (μM) ± SEM MAO-B, mean ± SEM, n = 3): 0.348 ± 0.041 µM
- SI = IC50 of MAO-A/IC50 of MAO-B ([6]; selectivity index): 55
